Measured values from BindingDB's records for doi:10.1073/pnas.0511292103 (Genomics Institute of The Novartis Research Foundation, 2006).

Molecular target: T1, Ret proto-oncogene (Homo sapiens, UniProt Q9UE13)
T1 sequence (Q9UE13 whole entry): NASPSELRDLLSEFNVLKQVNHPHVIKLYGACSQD

Ki	SMILES
> 10 µM	Cc1ccc(NC(=O)c2ccc(CN3CCN(C)CC3)cc2)cc1Nc1nccc(-c2cccnc2)n1
8.68 µM	Cc1cn(-c2cc(NC(=O)c3ccc(C)c(Nc4nccc(-c5cccnc5)n4)c3)cc(C(F)(F)F)c2)cn1 [AMN 107]
